We go through 36 compounds from patent US5747447A, “Stable polypeptide composition” (COR Therapeutics, priority 1995, dated 1998).

The assay concerns the target ADP-induced human platelet aggregation (Homo sapiens, UniProt P05106+P08514). Briefly: standard aggregation inhibition assay (ADP-induced human platelet aggregation). Format: cell-based. As to conditions: for pIC50: ADP-induced human platelet aggregation, read-out: Appr, IC50; for IC20: PAI activity, Example 15, read-out: Appr.IC20. The text has this:
2. Standard assays directly applied to platelet aggregation, such as those described by Gann, Z.-R., et al., J Biol Chem (1988) 263:19827-19832; Huang, T. F., et al., J Biol Chem (1987) 262:16157-16163; Biochemistry (1989) 28:661-666, cited above and incorporated herein by reference;

pIC50: −log10 of the molar value. *1 amine or outer side, *2 acyl side, *3 side chain or, on linkers, in order; H or OH if unused. Where a SMILES comes first, the peptide text is derived from it. Bridges are numbered along the chain shown (N, C = ends). Where no end group is shown, it is not given here. [ ]: non-standard residue; d: D form. X1 = N=C(NCCCC[C@H](N[*:1])C(=O)[*:2])c1ccccc1; Phe(4-Cl) = N[C@@H](Cc1ccc(Cl)cc1)C(=O)O; NMeR = CN[C@@H](CCCNC(=N)N)C(=O)O; hArg = N=C(N)NCCCC[C@H](N)C(=O)O; NMeL = CN[C@@H](CC(C)C)C(=O)O; Pen = CC(C)(S)[C@H](N)C(=O)O; NMeS = CN[C@@H](CO)C(=O)O; NMeA = CN[C@@H](C)C(=O)O; Aib = CC(C)(N)C(=O)O; βAla = NCCC(=O)O; Mpa = O=C(O)CCS; Sar = CNCC(=O)O

`CN1CC(=O)N[C@@H](CC(=O)O)C(=O)N[C@@H](Cc2c[nH]c3ccccc23)C(=O)N2CCC[C@H]2C(=O)N[C@H](C(N)=O)C(C)(C)SSCCC(=O)N[C@@H](CCCCNC(=N)N)C1=O` [Analog #71, Mpr-Har-Sar-D-W-P-Pen-NH2] ([Mpa][hArg][Sar]DWP[Pen]-NH2; disulfide 1-7): the pIC50 (in general, −log10 of the IC50, conventionally taken in molar units) is 5.60. Turning to `CC1(C)SSCCC(=O)N[C@@H](CCCCNC(=N)c2ccccc2)C(=O)NCC(=O)N[C@@H](CC(=O)O)C(=O)N[C@@H](Cc2c[nH]c3ccccc23)C(=O)N2CCC[C@H]2C(=O)N[C@@H]1C(N)=O` [Analog #72, Mpr-(Phenylimidyl-Lys)-G-D-W-P-Pen-NH2] ([Mpa][X1]GDWP[Pen]-NH2; disulfide 1-7), the pIC50 was 6.30. For the compound `N=C(N)NCCCC[C@@H]1NC(=O)[C@@H]2CCCN2C(=O)CCSSC[C@@H](C(N)=O)NC(=O)[C@@H]2CCCN2C(=O)[C@H](Cc2c[nH]c3ccccc23)NC(=O)[C@H](CC(=O)O)NC(=O)CNC1=O` [PAI 80, Mpr-P-Har-G-D-W-P-C-NH2] ([Mpa]P[hArg]GDWPC-NH2; disulfide 1-8), the IC20 (in general, the concentration at which the effect reaches the 20% level) worked out at 1.29 µM. Still for that read-out and setting: the figure for `N=C(N)NCCCC[C@@H]1NC(=O)CNC(=O)CCSSC[C@@H](C(N)=O)NC(=O)[C@@H]2CCCN2C(=O)[C@H](Cc2c[nH]c3ccccc23)NC(=O)[C@H](CC(=O)O)NC(=O)CNC1=O` [PAI 81, Mpr-G-Har-G-D-W-P-C-NH2] ([Mpa]G[hArg]GDWPC-NH2; disulfide 1-8) is 7.47 µM; for `CC1(C)NC(=O)CCSSC[C@@H](C(N)=O)NC(=O)[C@@H]2CCCN2C(=O)[C@H](Cc2c[nH]c3ccccc23)NC(=O)[C@H](CC(=O)O)NC(=O)CNC(=O)[C@H](CCCCNC(=N)N)NC1=O` [PAI 83, Mpr-Aib-Har-G-D-W-P-C-NH2] ([Mpa][Aib][hArg]GDWPC-NH2; disulfide 1-8) it is 2.2 µM.

Turning to `CN1C(=O)CCSSC[C@@H](C(N)=O)NC(=O)[C@@H]2CCCN2C(=O)[C@H](Cc2c[nH]c3ccccc23)NC(=O)[C@H](CC(=O)O)NC(=O)CNC(=O)[C@H](CCCCNC(=N)N)NC(=O)[C@@H]1CCCNC(=N)N` [PAI 84, Mpr-(N-Me-Arg)-Har-G-D-W-P-C-NH2] ([Mpa][NMeR][hArg]GDWPC-NH2; disulfide 1-8), the IC20 worked out at 0.25 µM. With `C[C@H]1NC(=O)CCSSC[C@@H](C(N)=O)NC(=O)[C@@H]2CCCN2C(=O)[C@H](Cc2c[nH]c3ccccc23)NC(=O)[C@H](CC(=O)O)NC(=O)CNC(=O)[C@H](CCCCNC(=N)N)NC1=O` [PAI 86, Mpr-A.dagger.-Har-G-D-W-P-C-NH2] ([Mpa][dA][hArg]GDWPC-NH2; disulfide 1-8), the IC20 was found to be 1.15 µM. On the same count and under the same terms, the figure for `N=C(N)NCCCC[C@@H]1NC(=O)CCNC(=O)CCSSC[C@@H](C(N)=O)NC(=O)[C@@H]2CCCN2C(=O)[C@H](Cc2c[nH]c3ccccc23)NC(=O)[C@H](CC(=O)O)NC(=O)CNC1=O` [PAI 87, Mpr-(β-Ala)-Har-G-D-W-P-C-NH2] ([Mpa][βAla][hArg]GDWPC-NH2; disulfide 1-8) is 0.92 µM.

With `CC(C)C[C@H]1C(=O)N[C@@H](CCCCNC(=N)N)C(=O)NCC(=O)N[C@@H](CC(=O)O)C(=O)N[C@@H](Cc2c[nH]c3ccccc23)C(=O)N2CCC[C@H]2C(=O)N[C@H](C(N)=O)CSSCCC(=O)N1C` [PAI 88, Mpr-(N-Me-Leu)-Har-G-D-W-P-C-NH2] ([Mpa][NMeL][hArg]GDWPC-NH2; disulfide 1-8), the IC20 stood at 0.84 µM. The same measure, in the same setting: with `C[C@H]1C(=O)N[C@@H](CCCCNC(=N)N)C(=O)NCC(=O)N[C@@H](CC(=O)O)C(=O)N[C@@H](Cc2c[nH]c3ccccc23)C(=O)N2CCC[C@H]2C(=O)N[C@H](C(N)=O)CSSCCC(=O)N1C` [PAI 89, Mpr-(N-Me-Ala)-Har-G-D-W-P-C-NH2] ([Mpa][NMeA][hArg]GDWPC-NH2; disulfide 1-8) the figure was 0.62 µM; with `CN1CC(=O)N[C@@H](CCCCNC(=N)N)C(=O)NCC(=O)N[C@@H](CC(=O)O)C(=O)N[C@@H](Cc2c[nH]c3ccccc23)C(=O)N2CCC[C@H]2C(=O)N[C@H](C(N)=O)CSSCCC1=O` [PAI 90, Mpr-Sar-Har-G-D-W-P-C-NH2] ([Mpa][Sar][hArg]GDWPC-NH2; disulfide 1-8), 0.27 µM; with `CC(C)[C@@H]1NC(=O)CCSSC[C@@H](C(N)=O)NC(=O)[C@@H]2CCCN2C(=O)[C@H](Cc2c[nH]c3ccccc23)NC(=O)[C@H](CC(=O)O)NC(=O)CNC(=O)[C@H](CCCCNC(=N)N)NC1=O` [PAI 91, Mpr-V-Har-G-D-W-P-C-NH2] ([Mpa]V[hArg]GDWPC-NH2; disulfide 1-8), 0.35 µM. On to `N=C(N)NCCCC[C@@H]1NC(=O)[C@H](CO)NC(=O)CCSSC[C@@H](C(N)=O)NC(=O)[C@@H]2CCCN2C(=O)[C@H](Cc2c[nH]c3ccccc23)NC(=O)[C@H](CC(=O)O)NC(=O)CNC1=O` [PAI 92, Mpr-S-Har-G-D-W-P-C-NH2] ([Mpa]S[hArg]GDWPC-NH2; disulfide 1-8), for which the IC20 came out at 0.24 µM. Still for that read-out and setting: the figure for `C[C@@H]1NC(=O)[C@@H]2CCCN2C(=O)[C@H](Cc2c[nH]c3ccccc23)NC(=O)[C@H](CC(=O)O)NC(=O)CNC(=O)[C@H](CCCCNC(=N)N)NC(=O)CCSSC[C@@H](C(N)=O)NC1=O` [PAI 93, Mpr-Har-G-D-W-P-A-C-NH2] ([Mpa][hArg]GDWPAC-NH2; disulfide 1-8) is 3.33 µM. Same read-out and setting: the figure for `C[C@H]1C(=O)N[C@H](C(N)=O)CSSCCC(=O)N[C@@H](CCCCNC(=N)N)C(=O)NCC(=O)N[C@@H](CC(=O)O)C(=O)N[C@@H](Cc2c[nH]c3ccccc23)C(=O)N2CCC[C@H]2C(=O)N1C` [PAI 94, Mpr-Har-G-D-W-P-(N-Me-Ala)-C-NH2] ([Mpa][hArg]GDWP[NMeA]C-NH2; disulfide 1-8) is 1.46 µM; for `N=C(N)NCCCC[C@@H]1NC(=O)CCSSC[C@@H](C(N)=O)NC(=O)CNC(=O)[C@@H]2CCCN2C(=O)[C@H](Cc2c[nH]c3ccccc23)NC(=O)[C@H](CC(=O)O)NC(=O)CNC1=O` [PAI 95, Mpr-Har-G-D-W-P-G-C-NH2] ([Mpa][hArg]GDWPGC-NH2; disulfide 1-8) it is 8.66 µM; for `C[C@H]1NC(=O)[C@@H]2CCCN2C(=O)[C@H](Cc2c[nH]c3ccccc23)NC(=O)[C@H](CC(=O)O)NC(=O)CNC(=O)[C@H](CCCCNC(=N)N)NC(=O)CCSSC[C@@H](C(N)=O)NC1=O` [PAI 96, Mpr-Har-G-D-W-P-A.dagger.-C-NH2] ([Mpa][hArg]GDWP[dA]C-NH2; disulfide 1-8) it is 0.23 µM. As for `N=C(N)NCCCC[C@@H]1NC(=O)CCSSC[C@@H](C(N)=O)NC(=O)[C@@H]2CCCN2C(=O)[C@@H]2CCCN2C(=O)[C@H](Cc2c[nH]c3ccccc23)NC(=O)[C@H](CC(=O)O)NC(=O)CNC1=O` [PAI 97, Mpr-Har-G-D-W-P-P-C-NH2] ([Mpa][hArg]GDWPPC-NH2; disulfide 1-8), the IC20 is 1.4 µM. For the compound `CN1CC(=O)N[C@H](C(N)=O)CSSCCC(=O)N[C@@H](CCCCNC(=N)N)C(=O)NCC(=O)N[C@@H](CC(=O)O)C(=O)N[C@@H](Cc2c[nH]c3ccccc23)C(=O)N2CCC[C@H]2C1=O` [PAI 98, Mpr-Har-G-D-W-P-(Sar)-C-NH2] ([Mpa][hArg]GDWP[Sar]C-NH2; disulfide 1-8), the IC20 was found to be 0.31 µM.

Consider `C[C@@H]1NC(=O)CCSSC(C)(C)[C@@H](C(N)=O)NC(=O)[C@@H]2CCCN2C(=O)[C@H](Cc2c[nH]c3ccccc23)NC(=O)[C@H](CC(=O)O)NC(=O)CNC(=O)[C@H](CCCCNC(=N)N)NC1=O` [PAI 100, Mpr-A-(Har)-G-D-W-P-Pen-NH2] ([Mpa]A[hArg]GDWP[Pen]-NH2; disulfide 1-8), for which the IC20 came out at 0.37 µM. With `C[C@@H]1NC(=O)CCSSC(C)(C)[C@@H](C(N)=O)NC(=O)[C@@H]2CCCN2C(=O)[C@H](Cc2c[nH]c3ccccc23)NC(=O)[C@H](CC(=O)O)NC(=O)CNC(=O)[C@H](CCCCN)NC1=O` [PAI 101, Mpr-A-K-G-D-W-P-Pen-NH2] ([Mpa]AKGDWP[Pen]-NH2; disulfide 1-8), the IC20 is 4.91 µM. Turning to `CC1(C)SSCCC(=O)N[C@@H](CC(=O)O)C(=O)N[C@@H](CCCCNC(=N)N)C(=O)NCC(=O)N[C@@H](CC(=O)O)C(=O)N[C@@H](Cc2c[nH]c3ccccc23)C(=O)N2CCC[C@H]2C(=O)N[C@@H]1C(N)=O` [PAI 102, Mpr-D-(Har)-G-D-W-P-Pen-NH2] ([Mpa]D[hArg]GDWP[Pen]-NH2; disulfide 1-8), the IC20 was found to be 4.04 µM. Turning to “Ac-CKGDWPC-NH2 (cysteine pairing not given here) [Analog #47]”, the pIC50 was 5.60. For the compound Acetyl-C-K-G-D-C-NH2 [Analog #8], the pIC50 was 3.70. For “CHGDWPC-NH2 (cysteine pairing not given here) [Analog #46]”, the pIC50 was 3.70. On to “CKADWPC-NH2 (cysteine pairing not given here) [Analog #37]”, for which the pIC50 was 4.00. On to “CKGDFPC-NH2 (cysteine pairing not given here) [Analog #13]”, for which the pIC50 was 4.70. Take “CKGDIPC-NH2 (cysteine pairing not given here) [Analog #41]”: the pIC50 was 4.00. With “CKGDWGC-NH2 (cysteine pairing not given here) [Analog #34]”, the pIC50 is 4.00. For “CKGDWPC-NH2 (cysteine pairing not given here) [Analog #10]”, the pIC50 was 5.30. Take “CKGDYPC-NH2 (cysteine pairing not given here) [Analog #12]”: the pIC50 is 4.92.

Take CKGD[Phe(4-Cl)]P-NH2 [Analog #42]: the pIC50 is 4.70.

For the compound “CKGEWPC-NH2 (cysteine pairing not given here) [Analog #35]”, the pIC50 was less than 3.52. Regarding “Mpr-(N-Me-Ser)-Har-G-D-W-P-C-NH2 ([Mpa][NMeS][hArg]GDWPC-NH2; cysteine pairing not given here) [PAI 85]”, the IC20 amounted to 0.28 µM. Same read-out and setting: with “Mpr-Har-G-D-W-P-(Aib)-NH2 ([Mpa][hArg]GDWP[Aib]-NH2; SMILES CC(C)(NC(=O)[C@@H]1CCCN1C(=O)[C@H](Cc1c[nH]c2ccccc12)NC(=O)[C@H](CC(=O)O)NC(=O)CNC(=O)[C@H](CCCCNC(=N)N)NC(=O)CCS)C(N)=O) [PAI 99]” the figure was 0.46 µM. Consider Mpr-Har-Sar-D-W-P-C-NH2 [Analog #68], for which the pIC50 was 5.52.
